The results in this text go back to patent publication US20050245563A1 (Millennium Pharmaceuticals, Inc., priority 2003, published 2005).

This assay addresses T1, human Chk1 (GST-Chk1) (Homo sapiens, UniProt O14757).
T1 construct: made in house; host or cells: insect cells (baculovirus, Bac-to-Bac)
T1 sequence (O14757 1-476): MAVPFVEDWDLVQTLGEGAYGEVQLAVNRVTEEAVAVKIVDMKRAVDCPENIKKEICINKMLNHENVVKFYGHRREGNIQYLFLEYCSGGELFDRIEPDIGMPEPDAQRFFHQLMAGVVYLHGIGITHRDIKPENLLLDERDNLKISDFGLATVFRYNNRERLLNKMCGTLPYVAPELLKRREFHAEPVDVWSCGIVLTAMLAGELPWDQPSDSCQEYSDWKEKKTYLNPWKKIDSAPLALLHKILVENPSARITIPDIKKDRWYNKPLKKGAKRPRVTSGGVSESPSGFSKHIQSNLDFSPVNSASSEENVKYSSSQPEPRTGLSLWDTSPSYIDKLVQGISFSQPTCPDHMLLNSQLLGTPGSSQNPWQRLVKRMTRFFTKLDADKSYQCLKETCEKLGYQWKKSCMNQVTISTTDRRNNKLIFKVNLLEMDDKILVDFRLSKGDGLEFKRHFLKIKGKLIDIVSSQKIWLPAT
The assay can be described thus: Chk1 DELFIA kinase assay (2 nM GST-Chk1, 600 μM ATP). The conditions noted are these: Biotin-GLYRSPSMPEN-amide substrate. Type of assay: biochemical. As to the method: Recombinant human Chk1 was expressed as a fusion protein with glutathione S-transferase at the amino-terminus (GST-Chk1) using standard baculovirus vectors and (Bac-to-Bac®) insect cell expression system purchased from GIBCO™ Invitrogen. Recombinant protein expressed in insect cells was purified using glutathione sepharose (Amersham Biotech) using standard procedures described by the manufacturer.
Chk1 DELFIA® Kinase Assay:
Assays (25 μL) utilized 2 nM GST-Chk1 containing 10 mM Tris, pH 7.5, 20% glycerol, 50 mM sodium chloride (NaCl), 0.01% Surfact-Amps® 20, 1 μM peptide stubstrate (Biotin-GLYRSPSMPEN-amide) (SEQ ID NO: 3), 01.% BSA, 2 mM DTT, 4% DMSO, 600 μM ATP, 10 MM MgCl2 and reacted for 50 minutes at room temperature. Reactions were terminated with 100 μL of Stop buffer containing 1% BSA, 10 mM Tris, pH 8.0, 150 mM NaCl, 100 mM EDTA. Stopped reactions (100 μL) were transferred to 96 well NeutrAvidin plates (Pierce) to capture the biotin-peptide substrate during a 30 minute room temperature incubation. Wells were washed and reacted with 100 μL PerkinElmer Wallac Assay Buffer containing 21.5 ng/ml anti-phospho-Ser216-Cdc25c rabbit polyclonal antibody from Cell Signaling Technology (Beverly, Mass.) and 292 ng/ml europium labeled anti-rabbit-IgG for 1 hour at room temperature. Wells were washed and europium released from the bound antibody by addition of Enhancement Solution (100 μL) (PerkinElmer Wallac) and detected using a Perkin Elmer Wallac Envison™ 2100 multilabel reader using standard manufacturer settings.
`Cc1[nH]nc2c1c(=O)n(C[C@H](C)CN)c1ccc(F)cc21` (stereo in doubt) [Compound 202, 5-(3-Amino-2-methyl-propyl)-8-fluoro-3-methyl-2,5-dihydro-pyrazolo[4,3-c]quinolin-4-one]: the IC50 was < 1 µM.
`Cc1[nH]nc2c1c(=O)n(CCCN)c1ccc(F)cc21` [Compound 203, 5-(3-Amino-propyl)-8-fluoro-3-methyl-2,5-dihydro-pyrazolo[4,3-c]quinolin-4-one]: the IC50 is < 1 µM.
For `COCCc1[nH]nc2c1c(=O)n(CCCN)c1ccc(F)cc21` [Compound 205, 5-(3-Amino-propyl)-8-fluoro-3-(2-methoxy-ethyl)-2,5-dihydro-pyrazolo[4,3-c]quinolin-4-one], the IC50 is < 1 µM.
`COCCc1[nH]nc2c1c(=O)n(CCCN)c1ccc(Cl)cc21` [Compound 206, 5-(3-Amino-propyl)-8-chloro-3-(2-methoxyethyl)-2,5-dihydro-pyrazolo[4,3-c]quinolin-4-one]: the IC50 is < 1 µM.
As for `Cc1[nH]nc2c1c(=O)n(CCCN)c1ccc(I)cc21` [Compound 208, 5-(3-Amino-propyl)-8-iodo-3-methyl-2,5-dihydro-pyrazolo[4,3-c]quinolin-4-one], the figure is < 1 µM; as for `Cc1[nH]nc2c1c(=O)n(CCCO)c1ccc(Cl)cc21` [Compound 209, 8-Chloro-5-(3-hydroxy-propyl)-3-methyl-2,5-dihydro-pyrazolo[4,3-c]quinolin-4-one], < 1 µM.
As for `Cc1[nH]nc2c1c(=O)n(CC[C@H]1CCCCN1)c1ccc(Cl)cc21` [Compound 213, 8-Chloro-3-methyl-5-(2R-piperidin-2-yl-ethyl)-2,5-dihydro-pyrazolo[4,3-c]quinolin-4-one], the figure is < 1 µM.
As for `Cc1[nH]nc2c1c(=O)n(CCC(C)N)c1ccc(Cl)cc21` (centres unmarked) [Compound 216, 5-(3-Amino-butyl)-8-chloro 3-methyl-2,5-dihydro-pyrazolo[4,3-c]quinolin-4-one], the IC50 was < 1 µM.
As to `Cc1[nH]nc2c1c(=O)n(CCC(O)Cn1ccnc1)c1ccc(Cl)cc21` (centres unmarked) [Compound 252, 8-Chloro-5-(3-hydroxy-4-imidazol-1-yl-butyl)-3-methyl-2,5-dihydro-pyrazolo[4,3-c]quinolin-4-one], the IC50 was < 1 µM.
Under `Cc1[nH]nc2c1c(=O)n(CCCNC(=N)N)c1ccc(Cl)cc21` [Compound 253, N-[3-(8-Chloro-3-methyl-4-oxo-2,4-dihydro-pyrazolo[4,3-c]quinolin-5-yl)-propyl]-guanidine] stands < 1 µM; under `Cc1[nH]nc2c1c(=O)n(CCCN)c1ccc(C(=O)O)cc21` [Compound 266, 5-(3-Amino-propyl)-3-methyl-4-oxo-4,5-dihydro-2H-pyrazolo[4,3-c]quinoline-8-carboxylic acid], 1 to 10 µM.
As for `COC(=O)/C=C/c1ccc2c(c1)c1n[nH]c(C)c1c(=O)n2CCCN` [Compound 267, 3-[5-(3-Amino-propyl)-3-methyl-4-oxo-4,5-dihydro-2H-pyrazolo[4,3-c]quinolin-8-yl]-acrylic acid methyl ester], the figure is < 1 µM; as for `COC(=O)CCc1ccc2c(c1)c1n[nH]c(C)c1c(=O)n2CCCN` [Compound 268, 3-[5-(3-Amino-propyl)-3-methyl-4-oxo-4,5-dihydro-2H-pyrazolo[4,3-c]quinolin-8-yl]-propionic acid methyl ester], < 1 µM.
As for `Cc1[nH]nc2c1c(=O)n(CCCN)c1ccc(CCC(=O)O)cc21` [Compound 269, 3-[5-(3-Aminopropyl)-3-methyl-4-oxo-4,5-dihydro-2H-pyrazolo[4,3-c]quinolin-8-yl]-propionic acid], the figure is 1 to 10 µM.
In the case of `NCCCn1c(=O)c2c(CCO)[nH]nc2c2cc(Cl)ccc21` [Compound 316, 5-(3-Amino-propyl)-8-chloro-3-(2-hydroxy-ethyl)-2,5-dihydro-pyrazolo[4,3-c]quinolin-4-one], the IC50 was < 1 µM.
With `COC(C)Cc1[nH]nc2c1c(=O)n(CCCN)c1ccc(Cl)cc21` (centres unmarked) [Compound 324, 5-(3-Amino-propyl)-8-chloro-3-(2-methoxy-propyl)-2,5-dihydro-pyrazolo[4,3-c]quinolin-4-one], the IC50 is 1 to 10 µM.
Under `CC(C)c1[nH]nc2c1c(=O)n(CCCN)c1ccc(Cl)cc21` [Compound 325, 5-(3-Amino-propyl)-8-chloro-3-isopropyl-2,5-dihydro-pyrazolo[4,3-c]quinolin-4-one] stands < 1 µM.
In the case of `COC(=O)c1ccc2c3n[nH]c(C)c3c(=O)n(CCCN)c2c1` [Compound 334, 5-(3-Amino-propyl)-3-methyl-4-oxo-4,5-dihydro-2H-pyrazolo[4,3-c]quinoline-7-carboxylic acid methyl ester], the IC50 lay within 1 to 10 µM.
Molecule `Cc1[nH]nc2c1c(=O)n(C)c1c(CCCN)cc(Cl)cc21` [Compound 343, 6-(3-Amino-propyl)-8-chloro-3,5-dimethyl-2,5-dihydro-pyrazolo[4,3-c]quinolin-4-one] registered an IC50 of 1 to 10 µM.
As for `Cc1[nH]nc2c1c(=O)n(C)c1c(C#CCO)cc(Cl)cc21` [Compound 344, 8-Chloro-6-(3-hydroxy-prop-1-ynyl)-3,5-dimethyl-2,5-dihydro-pyrazolo[4,3-c]quinolin-4-one], the figure is 1 to 10 µM.
As for `Cc1[nH]nc2c1c(=O)n(C)c1c(C#CCCN)cc(Cl)cc21` [Compound 345, 6-(4-amino-but-1-ynyl)-8-chloro-3,5-dimethyl-2,5-dihydro-pyrazolo[4,3-c]quinolin-4-one], the IC50 was < 1 µM.
In turn, `Cc1[nH]nc2c1c(=O)n(CCCN)c1c([N+](=O)[O-])cc(Cl)cc21` [Compound 347, 5-(3-Amino-propyl)-8-chloro-3-methyl-6-nitro-2,5-dihydro-pyrazolo[4,3-c]quinolin-4-one] showed an IC50 of 1 to 10 µM.
Under `Cc1[nH]nc2c1c(=O)n(CCCN)c1c(N)cc(Cl)cc21` [Compound 348, 6-Amino-5-(3-amino-propyl)-8-chloro-3-methyl-2,5-dihydro-pyrazolo[4,3-c]quinolin4-one] stands < 1 µM; under `Cc1[nH]nc2c1c(=O)n(CCCN)c1c(Br)cc(Cl)cc21` [Compound 349, 5-(3-Amino-propyl)-6-bromo-8-chloro-3-methyl 2,5-dihydro-pyrazolo[4,3-c]quinolin-4-one], < 1 µM.
As for `Cc1[nH]nc2c1c(=O)n(CCCN)c1ccc(NC(=O)CCN)cc21` [Compound 357, 3-Amino-N-[5-(3-amino-propyl)-3-methyl-4-oxo-4,5-dihydro-2H-pyrazolo[4,3-c]quinolin-8-yl]-propionamide], the IC50 is < 1 µM.
Under `Cc1[nH]nc2c1c(=O)n(CCCN)c1ccc(-c3ccncc3)cc21` [Compound 358, 5-(3-Amino-propyl)-3-methyl-8-pyridin-4-yl-2,5-dihydro-pyrazolo[4,3-c]quinolin-4-one] stands < 1 µM.
Take `C#Cc1ccc2c(c1)c1n[nH]c(CC)c1c(=O)n2CCCN` [Compound 360, 5-(3-Amino-propyl)-3-ethyl-8-ethynyl-2,5-dihydro-pyrazolo[4,3-c]quinolin-4-one]: the IC50 is < 1 µM.
In the case of `Cc1[nH]nc2c1c(=O)n(CC[C@@H](C)N)c1ccc(Cl)cc21` [Example 217, 5-(3R-Amino-butyl)-8-chloro 3-methyl-2,5-dihydro-pyrazolo[4,3-c]quinolin-4-one], the IC50 is < 1 µM.
As for `COCCc1[nH]nc2c1c(=O)n(CCC(C)N)c1ccc(Cl)cc21` (centres unmarked) [Example 219], the figure is < 1 µM.
For `Cc1[nH]nc2c1c(=O)n(C[C@@H](C)CN)c1ccc(Cl)cc21` [Example 220, 5-(3-Amino-2S-methyl-propyl)-8-chloro-3-methyl-2,5-dihydro-pyrazolo[4,3-c]quinolin-4-one], the IC50 is < 1 µM.
Consider `Cc1[nH]nc2c1c(=O)n(C[C@H](C)CN)c1ccc(Cl)cc21` [Example 221, 5-(3-Amino-2R-methyl-propyl)-8-chloro-3-methyl-2,5-dihydro-pyrazolo[4,3-c]quinolin-4-one], for which the IC50 is < 1 µM.
In the case of `COCCc1[nH]nc2c1c(=O)n(C[C@@H](C)CN)c1ccc(Cl)cc21` [Example 222, 5-(3-Amino-2S-methyl-propyl)-8-chloro-3-(2-methoxy-ethyl)-2,5-dihydro-pyrazolo[4,3-c]quinolin-4-one], the IC50 is < 1 µM.

By IC50 is commonly meant the concentration needed to halve the response being measured.
